The structures appear in SMILES notation.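 Growth conditions: 96-well plates. Treatment: test compound, 48 hours, 5 concentrations. Analysis: linear interpolation between bracketing concentrations; unreached endpoints set to highest concentration. GI50 marks 50% less growth.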 Active and inactive are the calls of the source. No stated cut-off is given here; in the data, active = GI50 up to about 1.1 µM and inactive = higher.

Data on ten compounds can be found in ChEMBL document CHEMBL1201862, “PubChem BioAssay data set” (2004).

Holding throughout (assay): NCI-60 cell line screen, 48 h
The subject of experiment [1] is NCI-H226.
Experiment [2] concerns OVCAR-4.
For experiment [3], the system named is TK-10.
Experiment [4] has as its system COLO 205.
Experiment [5] has as its system NCI-H23.
For experiment [6], the system named is SK-MEL-2.
In experiment [7] the test system is HT-29.
Experiment [8] deals with CAKI-1.
Experiment [9] relates to RXF 393.
The test system of experiment [10] is IGROV-1.
In experiment [11] the test system is SW-620.
For experiment [12], the system named is EKVX.
The test system of experiment [13] is NCI-H460.
In experiment [14] the test system is A549.
In experiment [15] the test system is HOP-62.
Experiment [16] has as its system SF-268.
The test system of experiment [17] is HOP-92.
Experiment [18] relates to SR.

`Cn1c(=O)nc2n(-c3ccc(Br)cc3)c3ccccc3nc-2c1=O`: the GI50 is 11 µM (inactive) in experiment [1]; 3.51 µM (inactive) in experiment [2]; 8.93 µM (inactive) in experiment [3]; 2.64 µM (inactive) in [4]; 0.783 µM (active) in experiment [5]; 9.33 µM (inactive) in experiment [6]. Further, the GI50 was 2.29 µM (inactive) in [7]; 4.86 µM (inactive) in experiment [8]; 12.3 µM (inactive) in experiment [9]; 11.7 µM (inactive) in experiment [10]; 2.06 µM (inactive) in experiment [11]; 1.94 µM (inactive) in [12]. The GI50 in experiment [13] is 1.82 µM (inactive); in [14], 2.02 µM (inactive); in experiment [15], 13.6 µM (inactive); in experiment [16], 11.3 µM (inactive).
On to `COc1cc2c(cc1OC)C(Cl)C(c1ccc(Cl)cc1)=C2Cl` (centres undefined), for which the GI50 in experiment [1] is 22 µM (inactive); in [17], 12.6 µM (inactive); in experiment [3], 19.6 µM (inactive); in experiment [4], 16.8 µM (inactive); in [5], 14.2 µM (inactive); in experiment [6], 16 µM (inactive). In addition, the GI50 is 13.3 µM (inactive) in experiment [7]; 17.3 µM (inactive) in experiment [8]; 19.3 µM (inactive) in experiment [10]; 18.7 µM (inactive) in experiment [11]; 9.86 µM (inactive) in [12]; 13.5 µM (inactive) in experiment [13]. Besides, the GI50 in experiment [16] is > 10 µM (inactive).
As to `COC(=O)C12CC(c3ccccc31)C1C(=O)OC(=O)C12` (centres undefined), the GI50 in experiment [2], in experiment [17], in [3], in [4], in experiment [5] and in experiment [6] was > 100 µM (inactive) each time. Moreover, the GI50 in experiment [7], in experiment [9], in [10], in experiment [11], in experiment [12] and in [13] was > 100 µM (inactive) each time. Besides, the GI50 in experiment [14], in [15] and in experiment [16] was > 100 µM (inactive) in each case.
Take `O=C1NP23(OCCO2)Oc2ccccc2C3(C(F)(F)F)O1` (centres undefined): the GI50 in experiment [1], in experiment [2], in [3], in experiment [5], in experiment [6] and in experiment [7] was > 100 µM (inactive) throughout. The GI50 in [13] is 78.3 µM (inactive); in experiment [14] it was > 100 µM (inactive); in experiment [16] it was > 100 µM (inactive).
Consider `Cc1cc(NS(=O)(=O)c2ccc(NC(=O)c3cccc4cc5ccccc5nc34)cc2)no1`, for which the GI50 in experiment [1] is 0.191 µM (active); in experiment [2], 18.3 µM (inactive); in [3], 35.9 µM (inactive); in [4] it was 23.3 µM (inactive); in experiment [5], 17.2 µM (inactive); in experiment [6], 18.7 µM (inactive). Moreover, the GI50 in experiment [7] is 30 µM (inactive); in experiment [8], 21.9 µM (inactive); in experiment [9] it was 14.8 µM (inactive); in [10] it was 15.8 µM (inactive); in [11], 25.3 µM (inactive); in experiment [12] it was 29.6 µM (inactive). Also, the GI50 in experiment [13] is 18.3 µM (inactive); in [14] it was 22 µM (inactive); in experiment [15], 27.6 µM (inactive); in experiment [16], 12.9 µM (inactive).
Regarding `C=C(C(=C)P(=S)(c1ccccc1)c1ccccc1)P(=S)(c1ccccc1)c1ccccc1`, the GI50 in experiment [2] is 34.8 µM (inactive); in [17], 2.52 µM (inactive); in experiment [3] it was > 100 µM (inactive); in experiment [4] it was > 100 µM (inactive); in [5], > 100 µM (inactive); in experiment [6] it was > 100 µM (inactive). Also, the GI50 in experiment [7], in [8], in [9], in experiment [10], in [11] and in experiment [12] was > 100 µM (inactive) throughout. Moreover, the GI50 in experiment [13], in experiment [14], in experiment [15] and in [16] was > 100 µM (inactive) each time.
As for `COC(=O)c1ccc(/N=N/N(C)CO)cc1`, the GI50 is > 100 µM (inactive) in experiment [1]; 55.8 µM (inactive) in [2]; > 100 µM (inactive) in [3]; 44.3 µM (inactive) in experiment [18]; > 100 µM (inactive) in [4]; > 100 µM (inactive) in experiment [5]. Also, the GI50 in experiment [6] was > 100 µM (inactive); in experiment [7], > 100 µM (inactive); in [9], 59.6 µM (inactive); in experiment [10], > 100 µM (inactive); in [11], > 100 µM (inactive); in [12] it was > 100 µM (inactive). Also, the GI50 in experiment [13] is > 100 µM (inactive); in [14], > 100 µM (inactive); in experiment [15], 81.8 µM (inactive).
As for `CC(O)/C=C/C(CCC(C)CO)C(C)C` (centres undefined), the GI50 in experiment [2], in [17], in [3], in experiment [4], in [5] and in experiment [6] was > 100 µM (inactive) throughout. Moreover, the GI50 in experiment [7], in experiment [8], in experiment [9], in experiment [10], in experiment [11] and in experiment [12] was > 100 µM (inactive) in each case. In addition, the GI50 in experiment [13], in [14], in experiment [15] and in experiment [16] was > 100 µM (inactive) each time.
As to `O=C1c2ccccc2CC1C1(O)C(=O)Nc2c(Cl)cc(Cl)cc21` (centres undefined), the GI50 in experiment [1] was 44.2 µM (inactive); in experiment [2], 92.5 µM (inactive); in experiment [17], 53.3 µM (inactive); in [3], > 100 µM (inactive); in [4], 75.2 µM (inactive); in [5] it was 24.9 µM (inactive). Moreover, the GI50 in experiment [6] is 97.5 µM (inactive); in experiment [7] it was 67.8 µM (inactive); in [8], > 100 µM (inactive); in experiment [9] it was 23.6 µM (inactive); in experiment [11] it was 35.2 µM (inactive); in experiment [12] it was 67 µM (inactive). Further, the GI50 is 99.8 µM (inactive) in [13], 47.9 µM (inactive) in experiment [14], 99.5 µM (inactive) in experiment [15] and 61 µM (inactive) in [16].
For the compound `CCCCc1c2c(nc3c1CCCC3=O)CCCC2`, the GI50 was 18.3 µM (inactive) in experiment [1]; 41.4 µM (inactive) in [18]; > 100 µM (inactive) in experiment [4]; > 100 µM (inactive) in [5]; > 100 µM (inactive) in experiment [7]; > 100 µM (inactive) in experiment [10]. In addition, the GI50 in [11], in experiment [12], in [13], in experiment [14], in experiment [15] and in experiment [16] was > 100 µM (inactive) each time.
